Experimental data published in PMC8471300, “A Computational Workflow for the Identification of Novel Fragments Acting as Inhibitors of the Activity of Protein Kinase CK1δ” (International Journal of Molecular Sciences, 2021).
Where two headings read alike, the source gives them in different places.

Legend:
CK1δ (aa 1-294) = biological target: T1, CK1δ (aa 1-294) (Homo sapiens, UniProt P48730); experiment: CK1δ KinaseGlo luminescence enzymatic assay; format: biochemical; details: for remaining activity at 40 µM: ligand at 40 μM, mean of two independent experiments in duplicate, read-out: % CK1δ residual activity - fixed dose 40 μM; for IC50: mean of three independent experiments, 95% confidence limits in brackets, 4 μM ATP, 0.1% casein
T1 construct: Compounds were evaluated towards CK1δ (aa 1-294, Merck Millipore); purchased Merck Millipore
T1 sequence (P48730 1-294): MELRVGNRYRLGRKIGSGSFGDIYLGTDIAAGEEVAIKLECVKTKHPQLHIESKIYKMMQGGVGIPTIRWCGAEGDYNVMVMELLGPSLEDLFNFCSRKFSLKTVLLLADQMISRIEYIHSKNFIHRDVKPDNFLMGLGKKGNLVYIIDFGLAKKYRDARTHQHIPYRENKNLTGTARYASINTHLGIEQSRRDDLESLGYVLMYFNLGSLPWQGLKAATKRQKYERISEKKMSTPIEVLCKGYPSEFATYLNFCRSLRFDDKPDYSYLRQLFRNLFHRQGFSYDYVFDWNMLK
Method: Fragments were tested against CK1δ using a luminescent-based assay.
Compounds were evaluated towards CK1δ (aa 1-294, Merck Millipore, Frankfurter Strasse 250, Darmstadt, 64293, Germany) with the KinaseGlo® luminescence assay (Promega Corporation, 2800 Woods Hollow Road Madison, WI 53711, USA) following procedures reported in the literature. In detail, luminescent assays were performed in white 96-well plates, using the following buffer: 50 mM HEPES (pH 7.5),1 mM EDTA, 1 mM EGTA, and 15 mM MgCl2. […] In a typical assay, 10 μL of inhibitor solution (dissolved in DMSO at 10 mM concentration and diluted in assay buffer to the desired concentration) and 10 μL (16 ng) of enzyme solution were added to each well, followed by 20 μL of assay buffer containing 0.1% casein substrate and 4 μM ATP.
After 60 min of incubation at 30 °C, the enzymatic reactions were stopped with 40 μL of KinaseGlo® reagent (Promega). The luminescence signal (relative light unit, RLU) was recorded after 10 min at 25 °C using Tecan Infinite M100. […] Two independent experiments were performed in duplicate and the corresponding residual activity of CK1δ was obtained. Data were analyzed using Excel and reported as the mean of the two experiments with standard deviation. For IC50 determination ten different inhibitor concentrations ranging from 100 to0.026 μM were used and each point was assessedin duplicate. IC50 values are the mean of three independent experiments and 95% confidence limits were also reported. Data were analyzed using GraphPad Prism software (version 8.0).

CK1δ [1] = biological target: CK1δ; design: method as in PMID 19825801; details: cited from earlier work
ALK kinase = biological target: ALK kinase; design: method as in PMID 19825801; details: cited from earlier work
CK1δ [2] = biological target: CK1δ; design: method as in PMID 21336281; details: cited from earlier work

Nc1ncnc2sc3c(c12)CCCC3 [Compound 37]
remaining activity at 40 µM (CK1δ (aa 1-294)): 23.8%
IC50 (CK1δ (aa 1-294)): 12.7 µM

Nc1n[nH]c2cc(Cl)ccc12 [Compound 38]
remaining activity at 40 µM (CK1δ (aa 1-294)): 24.4%
IC50 (CK1δ (aa 1-294)): 20.5 µM

CNC(=O)c1c(F)cccc1Nc1nc(Nc2cc3c(cc2OC)CCN3C(=O)CN(C)C)nc2[nH]ccc12 [GSK1838705A]
Ki (CK1δ [1]): 3.5 µM

N#Cc1c(N)nsc1N1CCOCC1 [Compound 28]
remaining activity at 40 µM (CK1δ (aa 1-294)): 37.8%
IC50 (CK1δ (aa 1-294)): 3.31 µM

Cc1c(C)n(-c2cccnc2)c2ncnc(N)c12 [Compound 52]
remaining activity at 40 µM (CK1δ (aa 1-294)): 28.3%
IC50 (CK1δ (aa 1-294)): 13.5 µM

Nc1n[nH]c2cccc(F)c12 [Compound 63]
remaining activity at 40 µM (CK1δ (aa 1-294)): 35.4%
IC50 (CK1δ (aa 1-294)): 24.9 µM

CSc1c[nH]c2ncnc(NCCCO)c12 [CHEMBL2000114]
Ki (CK1δ [2]; same kinome scan from Abbott Labs): 1 µM

Nc1nsc(Nc2ccccc2)n1 [Compound 62]
remaining activity at 40 µM (CK1δ (aa 1-294)): 28.1%
IC50 (CK1δ (aa 1-294)): 18.1 µM

O=C(Nc1n[nH]c2ccc(-c3cn(Cc4ccccc4)nn3)cc12)c1ccccc1 [CHEMBL1999931]
Ki (CK1δ [2]; multikinase inhibitor with 3-amino-indazole scaffold): 0.316 µM

Nc1ncnc2nccc(O)c12 [Compound 59]
remaining activity at 40 µM (CK1δ (aa 1-294)): 24.7%
IC50 (CK1δ (aa 1-294)): 13.9 µM
